{
  "source": "EPA's ToxRefDB 2",
  "key": {"rabbit": {"test_system": "rabbit", "conditions": "Prenatal developmental toxicity study, new zealand white, Oral, Gavage/Intubation, dose end: 19 GD"}, "rat [1]": {"test_system": "rat", "conditions": "Subchronic oral toxicity in rodents, sprague dawley, Feed, dose end: 90 day, group: systemic"}, "dog": {"test_system": "dog", "conditions": "Subchronic oral toxicity in nonrodent, beagle, Feed, dose end: 90 day, group: systemic"}, "rat [2]": {"test_system": "rat", "conditions": "Multigenerational reproductive toxicity study, other, Oral, Feed, dose end: 2 generation"}, "rat [3]": {"test_system": "rat", "conditions": "Prenatal developmental toxicity study, sprague dawley, Oral, Gavage/Intubation, dose end: 16 GD"}, "rat [4]": {"test_system": "rat", "conditions": "Prenatal developmental toxicity study, sprague dawley, Oral, Gavage/Intubation, dose end: 16 GD", "remark": "listed apart in the source"}, "rat [5]": {"test_system": "rat", "conditions": "Prenatal developmental toxicity study, sprague dawley, Oral, Feed, dose end: 16 GD"}, "rat [6]": {"test_system": "rat", "conditions": "Combined chronic toxicity/carcinogenicity, sprague dawley, Oral, Feed, dose end: 2 year, group: systemic"}, "[7]": {"conditions": "group: developmental, systemic / in life observation / body weight / fetal weight"}, "[8]": {"conditions": "group: maternal, reproductive / reproductive performance / aborted / aborted + reproductive / reproductive performance / resorptions / resorptions + systemic…"}, "[9]": {"conditions": "systemic / pathology microscopic / stomach / hyperplasia"}, "[10]": {"conditions": "group: offspring, developmental / offspring survival late / viability index / viability index"}, "[11]": {"conditions": "group: offspring, developmental / offspring survival late / viability index / viability index + systemic / in life observation / body weight / offspring (pup…"}, "[12]": {"conditions": "group: parental, systemic / pathology microscopic / liver / hypertrophy + systemic / in life observation / body weight / body weight + systemic / pathology …"}, "[13]": {"conditions": "group: parental, systemic / pathology microscopic / liver / hypertrophy + systemic / in life observation / mortality / mortality"}, "[14]": {"conditions": "group: reproductive, reproductive / reproductive performance / gestational length / gestational length"}, "[15]": {"conditions": "group: reproductive, reproductive / reproductive performance / gestational length / gestational length + reproductive / offspring survival early / litter size / …"}, "[16]": {"conditions": "group: developmental, developmental / developmental malformation / kidney / small renal papilla + developmental / developmental malformation / ureter / distended"}, "[17]": {"conditions": "group: developmental, developmental / developmental malformation / kidney / small renal papilla + developmental / developmental malformation / ureter / distended…"}, "[18]": {"conditions": "group: maternal, systemic / in life observation / body weight / body weight gain + systemic / in life observation / food consumption / food consumption + …"}, "[19]": {"conditions": "group: developmental, developmental / developmental malformation / kidney / absent renal papilla + developmental / developmental malformation / ureter / …"}, "[20]": {"conditions": "group: maternal, systemic / organ weight / liver / relative to body weight"}, "[21]": {"conditions": "group: maternal, systemic / organ weight / liver / relative to body weight + systemic / in life observation / body weight / body weight gain + systemic / in …"}, "[22]": {"conditions": "group: developmental, developmental / developmental malformation / bone / extra ossification site + developmental / developmental malformation / bone / incomplete…"}, "[23]": {"conditions": "group: maternal, reproductive / reproductive performance / resorptions / resorptions + systemic / in life observation / food consumption / food consumption…"}, "[24]": {"conditions": "systemic / organ weight / liver / relative to body weight + systemic / pathology microscopic / liver / hypertrophy"}, "[25]": {"conditions": "systemic / organ weight / liver / relative to body weight + systemic / pathology microscopic / liver / hypertrophy + systemic / clinical …"}},
  "data": [
    {"smiles": "C[Si](Cn1cncn1)(c1ccc(F)cc1)c1ccc(F)cc1", "note": "[Flusilazole]", "values": [
      {"measurement": "LEL", "setting": "rabbit; [7]", "value": 35, "unit": "mg/kg/day"},
      {"measurement": "LOAEL", "setting": "rabbit; [7]", "value": 35, "unit": "mg/kg/day"},
      {"measurement": "NEL", "setting": "rabbit; [7]", "value": 12, "unit": "mg/kg/day"},
      {"measurement": "NOAEL", "setting": "rabbit; [7]", "value": 12, "unit": "mg/kg/day"},
      {"measurement": "LEL", "setting": "rabbit; [8]", "value": 35, "unit": "mg/kg/day"},
      {"measurement": "LOAEL", "setting": "rabbit; [8]", "value": 35, "unit": "mg/kg/day"},
      {"measurement": "NEL", "setting": "rabbit; [8]", "value": 12, "unit": "mg/kg/day"},
      {"measurement": "NOAEL", "setting": "rabbit; [8]", "value": 12, "unit": "mg/kg/day"},
      {"measurement": "LOAEL", "setting": "rat [1]; systemic / clinical chemistry / cholesterol / cholesterol + systemic / pathology microscopic / urinary bladder / hyperplasia", "value": 27, "unit": "mg/kg/day"},
      {"measurement": "NOAEL", "setting": "rat [1]; systemic / clinical chemistry / cholesterol / cholesterol + systemic / pathology microscopic / urinary bladder / hyperplasia + systemic / …", "value": 9, "unit": "mg/kg/day"},
      {"measurement": "LEL", "setting": "rat [1]; systemic / in life observation / body weight / body weight", "value": 11, "unit": "mg/kg/day"},
      {"measurement": "NEL", "setting": "rat [1]; systemic / in life observation / body weight / body weight + systemic / clinical chemistry / cholesterol / cholesterol + systemic / organ …", "value": 2, "unit": "mg/kg/day"},
      {"measurement": "NOAEL", "setting": "dog; systemic / organ weight / liver / absolute + systemic / organ weight / liver / relative to body weight + systemic / clinical chemistry / …", "value": 0.9, "unit": "mg/kg/day"},
      {"measurement": "LOAEL", "setting": "dog; systemic / organ weight / liver / absolute + systemic / organ weight / liver / relative to body weight + systemic / pathology microscopic / …", "value": 4.3, "unit": "mg/kg/day"},
      {"measurement": "LEL", "setting": "dog; [9]", "value": 0.9, "unit": "mg/kg/day"},
      {"measurement": "NEL", "setting": "dog; [9]", "value": "< 0.9", "unit": "mg/kg/day"},
      {"measurement": "NEL", "setting": "rat [2]; [10]", "value": 3.5, "unit": "mg/kg/day"},
      {"measurement": "NOAEL", "setting": "rat [2]; [10]", "value": 3.5, "unit": "mg/kg/day"},
      {"measurement": "LEL", "setting": "rat [2]; [11]", "value": 17.5, "unit": "mg/kg/day"},
      {"measurement": "LOAEL", "setting": "rat [2]; [11]", "value": 17.5, "unit": "mg/kg/day"},
      {"measurement": "LEL", "setting": "rat [2]; [12]", "value": 3.5, "unit": "mg/kg/day"},
      {"measurement": "LOAEL", "setting": "rat [2]; [12]", "value": 3.5, "unit": "mg/kg/day"},
      {"measurement": "NEL", "setting": "rat [2]; [13]", "value": 0.35, "unit": "mg/kg/day"},
      {"measurement": "NOAEL", "setting": "rat [2]; [13]", "value": 0.35, "unit": "mg/kg/day"},
      {"measurement": "NEL", "setting": "rat [2]; [14]", "value": 3.5, "unit": "mg/kg/day"},
      {"measurement": "NOAEL", "setting": "rat [2]; [14]", "value": 3.5, "unit": "mg/kg/day"},
      {"measurement": "LEL", "setting": "rat [2]; [15]", "value": 17.5, "unit": "mg/kg/day"},
      {"measurement": "LOAEL", "setting": "rat [2]; [15]", "value": 17.5, "unit": "mg/kg/day"},
      {"measurement": "LEL", "setting": "rat [3]; [16]", "value": 10, "unit": "mg/kg/day"},
      {"measurement": "LOAEL", "setting": "rat [3]; [16]", "value": 10, "unit": "mg/kg/day"},
      {"measurement": "NEL", "setting": "rat [3]; [17]", "value": 2, "unit": "mg/kg/day"},
      {"measurement": "NOAEL", "setting": "rat [3]; [17]", "value": 2, "unit": "mg/kg/day"},
      {"measurement": "LEL", "setting": "rat [3]; [18]", "value": 100, "unit": "mg/kg/day"},
      {"measurement": "LOAEL", "setting": "rat [3]; [18]", "value": 100, "unit": "mg/kg/day"},
      {"measurement": "NEL", "setting": "rat [3]; [18]", "value": 10, "unit": "mg/kg/day"},
      {"measurement": "NOAEL", "setting": "rat [3]; [18]", "value": 10, "unit": "mg/kg/day"},
      {"measurement": "LEL", "setting": "rat [4]; [19]", "value": 0.4, "unit": "mg/kg/day"},
      {"measurement": "LOAEL", "setting": "rat [4]; [19]", "value": 0.4, "unit": "mg/kg/day"},
      {"measurement": "NEL", "setting": "rat [4]; [19]", "value": "< 0.4", "unit": "mg/kg/day"},
      {"measurement": "NOAEL", "setting": "rat [4]; [19]", "value": "< 0.4", "unit": "mg/kg/day"},
      {"measurement": "LEL", "setting": "rat [4]; [20]", "value": 50, "unit": "mg/kg/day"},
      {"measurement": "LOAEL", "setting": "rat [4]; [20]", "value": 50, "unit": "mg/kg/day"},
      {"measurement": "NEL", "setting": "rat [4]; [21]", "value": 10, "unit": "mg/kg/day"},
      {"measurement": "NOAEL", "setting": "rat [4]; [21]", "value": 10, "unit": "mg/kg/day"},
      {"measurement": "LOAEL", "setting": "rat [5]; [22]", "value": 300, "unit": "ppm"},
      {"measurement": "NEL", "setting": "rat [5]; [22]", "value": 50, "unit": "ppm"},
      {"measurement": "NOAEL", "setting": "rat [5]; [22]", "value": 100, "unit": "ppm"},
      {"measurement": "LEL", "setting": "rat [5]; group: developmental, developmental / developmental malformation / bone / extra ossification site + developmental / developmental malformation / bone / unossified", "value": 100, "unit": "ppm"},
      {"measurement": "LOAEL", "setting": "rat [5]; group: maternal, reproductive / reproductive performance / resorptions / resorptions + systemic / in life observation / food consumption / food consumption", "value": 300, "unit": "ppm"},
      {"measurement": "LEL", "setting": "rat [5]; [23]", "value": 300, "unit": "ppm"},
      {"measurement": "NEL", "setting": "rat [5]; [23]", "value": 100, "unit": "ppm"},
      {"measurement": "NOAEL", "setting": "rat [5]; [23]", "value": 100, "unit": "ppm"},
      {"measurement": "LEL", "setting": "rat [6]; [24]", "value": 2.6, "unit": "mg/kg/day"},
      {"measurement": "LOAEL", "setting": "rat [6]; [24]", "value": 2.6, "unit": "mg/kg/day"},
      {"measurement": "NEL", "setting": "rat [6]; [25]", "value": 0.53, "unit": "mg/kg/day"},
      {"measurement": "NOAEL", "setting": "rat [6]; [25]", "value": 0.53, "unit": "mg/kg/day"}
    ]}
  ]
}
